These results are taken from ChEMBL document CHEMBL1121671, “Synthesis of analogues of acetylmethadol and methadol as potential narcotic antagonists” (J Med Chem, 1981).

The ED50 is the dose at which the effect has come halfway, by size or by number of responders. As a reminder, the Ki is a dissociation constant, usually derived from enzyme kinetics or from competition with a known ligand.

In experiment [1] the test system is Mus musculus. The experiment is described as follows: Compound was evaluated for antagonism of tail-flick analgesia induced by 6.5 mg/kg of morphine sulfate at 10 mg/kg; Inactive. The format is functional, organism-based.
In experiment [2] the test system is Mus musculus. The experiment is described as follows: Compound was evaluated for narcotic analgesia activity in mice by the tail flick test; Weak up to 30 and 38% analgesia at 30 mg/kg. The class given is functional, organism-based. Also noted: dose 30 mg/kg. Background: Thermal pain tests record how soon the animal reacts.
In experiment [3] the test system is Mus musculus. The experiment is described as follows: Compound was evaluated for narcotic analgesia activity in mice by mouse writhing assay at 30 mg/kg; Inactive. The class given is functional, organism-based. Also noted: dose 30 mg/kg. (In general: An intraperitoneal irritant provokes the stretching counted in writhing tests.)
In experiment [4] the target is T1, Opioid receptor (Rattus norvegicus, UniProt P33533+P34975+P33535). The class given is cell membranes, Brain, Membrane.
In experiment [5] the target is T1, Opioid receptor. The experiment is described as follows: Compound was evaluated for the inhibition of [3H]- naloxone binding to Opioid receptors in rat brain membrane in the presence of Na. The format is cell membranes.
The species named for experiment [6] is Mus musculus. The experiment is described as follows: Compound was evaluated for narcotic analgesia activity in mice by hot plate test. The class given is functional.
The species entered for experiment [7] is Mus musculus. The experiment is described as follows: Compound was evaluated for narcotic analgesia activity in mice by mouse writhing assay. The format is functional.
For experiment [8], the species on record is Mus musculus. The experiment is described as follows: Compound was evaluated for narcotic analgesia activity in mice by the tail flick test. The format is functional.
Experiment [9] has as its system Mus musculus. The experiment is described as follows: Compound was evaluated for antagonism of tail-flick analgesia induced by 6.5 mg/kg of morphine sulfate at 0.3 mg/kg. The format is functional.
Experiment [10] has as its target T1, Opioid receptor. The experiment is described as follows: Compound was evaluated for the inhibition of [3H]- naloxone Opioid receptors binding using rat brain membrane in the presence of 100 mM Na.
Experiment [11] deals with T1, Opioid receptor. The experiment is described as follows: Compound was evaluated for the inhibition of [3H]- naloxone Opioid receptors binding using rat brain membrane in the absence of Na.
Experiment [12] relates to Mus musculus. The experiment is described as follows: Compound was evaluated for antagonism of tail-flick analgesia induced by 6.5 mg/kg of morphine sulfate at 1 mg/kg. The format is functional.

Molecules are shown by their SMILES. Activity calls are given as the source filed them. The calls are words filed in the database; no cut-off is given here.

With `CCC(OC(C)=O)C(CC(C)N(C)CC1CC1)(c1ccccc1)c1ccccc1` (centres undefined), the ED50 result in the experiment with Mus musculus [1] and with Mus musculus [3] was “inactive” in each case. The ED50 result with Mus musculus [2] is “Weak activity”. In addition, the Ki at Opioid receptor [4] is 2000 nM; on Opioid receptor [5], 30000 nM.

As for `CCC(O)C(CC(C)N(C)CC1CC1)(c1ccccc1)c1ccccc1` (centres undefined), the Ki on Opioid receptor [4] was 600 nM; at Opioid receptor [5], 5000 nM.

On to `CN1CC[C@]23c4c5ccc(O)c4O[C@H]2[C@@H](O)C=C[C@H]3[C@H]1C5.CN1CC[C@]23c4c5ccc(O)c4O[C@H]2[C@@H](O)C=C[C@H]3[C@H]1C5.O=S(=O)(O)O`, for which the results for the 50% effective dose (ED50) in the experiment listed under Mus musculus [6], in the experiment listed under Mus musculus [7] and in the experiment filed under Mus musculus [8] were 3.05 mg/kg, 0.82 mg/kg and 3.3 mg/kg, respectively.

As for `C=CCN(C)C(C)CC(c1ccccc1)(c1ccccc1)C(O)CC` (centres undefined), the Ki worked out at 150 nM on Opioid receptor [4] and 2000 nM on Opioid receptor [5].

On to `C=CCN(C)C(C)CC(c1ccccc1)(c1ccccc1)C(CC)OC(C)=O` (centres undefined), for which the ED50 is 10 mg/kg in the experiment filed under Mus musculus [6], 2.5 mg/kg in the experiment filed under Mus musculus [7] and 3.1 mg/kg in the experiment listed under Mus musculus [8]. The ED80 with Mus musculus [9] was 56.9 mg/kg; in the experiment on Mus musculus [12] it was 61.4 mg/kg. Besides, the Ki turned out to be 10000 nM on Opioid receptor [10] and 900 nM at Opioid receptor [11].
